Among the test systems are OVCAR-8 ovarian; A498 renal; COLO 205 colon; SW-620 colon; SR leukemia; SF-268 CNS; MDA-N; 786-0 renal; ACHN renal; BT-549 breast; SNB-75 CNS; MDA-MB-231 breast; HOP-62 NSCLC; PC-3 prostate; CAKI-1 renal; UACC-257 melanoma; OVCAR-4 ovarian; M14 melanoma.
Assay in all cases: NCI tumour cell line growth inhibition, 48 h

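Five compound concentrations were applied to cells in 96-well plates for 48 hours; endpoints were derived by simple linear interpolation of the resulting dose-response curve. TGI: concentration producing complete growth inhibition.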 Bounds are passed on as bounds.

Take `NC(=O)NC(=O)c1ccc(NC(=O)CBr)cc1`: the TGI with OVCAR-8 ovarian came out at 8.38 µM; in the experiment on A498 renal, 36 µM; in the experiment with COLO 205 colon, 2.99 µM; in the experiment with SW-620 colon, 1.74 µM; in the experiment on SR leukemia, 1.01 µM; in the experiment with SF-268 CNS, 3.09 µM. Moreover, the TGI came to 5 µM with MDA-N; 0.919 µM in the experiment with 786-0 renal; 2.91 µM with ACHN renal; 4.7 µM in the experiment on BT-549 breast; 4.19 µM in the experiment with SNB-75 CNS; 6.48 µM in the experiment on MDA-MB-231 breast. In addition, the TGI in the experiment with HOP-62 NSCLC worked out at 4.81 µM; in the experiment with PC-3 prostate, 4.39 µM; with CAKI-1 renal, 1.52 µM; with UACC-257 melanoma, 5.29 µM.
For `O=C1c2cccnc2C(=O)c2c1nc1ccccc1c2-c1cncc(-c2c3c(nc4ccccc24)C(=O)c2cccnc2C3=O)c1`, the TGI turned out to be 0.618 µM in the experiment on OVCAR-8 ovarian; 5.39 µM in the experiment on A498 renal; 1.91 µM in the experiment with OVCAR-4 ovarian; 0.617 µM in the experiment on COLO 205 colon; 0.906 µM in the experiment with SW-620 colon; 0.0608 µM in the experiment with SR leukemia. For the same compound, the TGI in the experiment on SF-268 CNS turned out to be 1.25 µM; in the experiment on M14 melanoma, 0.576 µM; with MDA-N, 0.778 µM; with 786-0 renal, 0.228 µM; with ACHN renal it was 0.437 µM; with BT-549 breast, 1.52 µM. Further, the TGI stood at 1.6 µM with SNB-75 CNS; 0.928 µM with MDA-MB-231 breast; 11 µM with PC-3 prostate; 1.64 µM in the experiment on CAKI-1 renal; 1.08 µM with UACC-257 melanoma.
For `C=C(Cl)C(Br)(CBr)CCC(Br)C(C)(C)Br` (stereo unspecified), the TGI with OVCAR-8 ovarian was over 1 µM; with A498 renal, over 10 µM; in the experiment with OVCAR-4 ovarian it was over 10 µM; with COLO 205 colon, over 10 µM; in the experiment on SW-620 colon, 9.33 µM; in the experiment with SR leukemia it was over 1 µM. Besides, the TGI is 6.25 µM in the experiment on SF-268 CNS; over 10 µM in the experiment on M14 melanoma; over 10 µM in the experiment with MDA-N; 3.08 µM in the experiment with 786-0 renal; over 10 µM in the experiment on ACHN renal; over 10 µM in the experiment on BT-549 breast. Moreover, the TGI in the experiment with SNB-75 CNS was over 10 µM; in the experiment with MDA-MB-231 breast it was 3.38 µM; with HOP-62 NSCLC, over 10 µM; in the experiment on PC-3 prostate, over 10 µM; in the experiment on CAKI-1 renal, over 10 µM.
With `Cc1n[nH]c(=O)n1/N=C/c1cccnc1`, the TGI with OVCAR-8 ovarian, with A498 renal, with OVCAR-4 ovarian, in the experiment with COLO 205 colon, in the experiment with SW-620 colon and with SR leukemia was over 100 µM in each case. The TGI in the experiment with SF-268 CNS, in the experiment with M14 melanoma, in the experiment with MDA-N, in the experiment with 786-0 renal, in the experiment on ACHN renal and in the experiment on BT-549 breast was over 100 µM in each case. The TGI in the experiment with MDA-MB-231 breast, in the experiment on HOP-62 NSCLC, in the experiment with PC-3 prostate, in the experiment on CAKI-1 renal and in the experiment on UACC-257 melanoma was over 100 µM throughout.
As to `Cc1ccc(S(=O)(=O)n2cnc(CC(NC(=O)C3CCC(=O)N3C(=O)OCc3ccccc3)C(=O)N3CCCC3C(=O)NN)c2)cc1` (stereo unspecified), the TGI with OVCAR-8 ovarian, with A498 renal, in the experiment with COLO 205 colon, with SW-620 colon, with SR leukemia and with M14 melanoma was over 100 µM each time. The TGI in the experiment with MDA-N, with 786-0 renal, with ACHN renal, with BT-549 breast, in the experiment on SNB-75 CNS and in the experiment with MDA-MB-231 breast was over 100 µM in each case. In addition, the TGI in the experiment with HOP-62 NSCLC, in the experiment with PC-3 prostate and with UACC-257 melanoma was over 100 µM each time.
As to `COc1c(O)cc2c(c1O)C1O[C@H](CO)C(O)[C@H](O)[C@H]1OC2=O` (stereo partly specified), the TGI in the experiment with OVCAR-8 ovarian, in the experiment with OVCAR-4 ovarian, in the experiment on COLO 205 colon, in the experiment on SW-620 colon, in the experiment with SR leukemia and in the experiment with SF-268 CNS was over 100 µM each time. Besides, the TGI with M14 melanoma, in the experiment with MDA-N, in the experiment with 786-0 renal, with ACHN renal, with BT-549 breast and in the experiment on SNB-75 CNS was over 100 µM in each case. The TGI in the experiment with MDA-MB-231 breast, in the experiment on HOP-62 NSCLC, in the experiment on PC-3 prostate, in the experiment on CAKI-1 renal and in the experiment with UACC-257 melanoma was over 100 µM throughout.
As to `CCOC(=O)c1c(NC(=O)c2ccc(OC)cc2)sc2c1CCCC2`, the TGI in the experiment with OVCAR-8 ovarian, in the experiment with A498 renal, in the experiment on COLO 205 colon, with SW-620 colon, with SR leukemia and in the experiment with SF-268 CNS was over 100 µM throughout. Further, the TGI in the experiment on M14 melanoma, in the experiment on MDA-N, in the experiment on 786-0 renal, in the experiment with ACHN renal, in the experiment with BT-549 breast and with MDA-MB-231 breast was over 100 µM in each case. For the same compound, the TGI in the experiment with HOP-62 NSCLC, with PC-3 prostate, with CAKI-1 renal and in the experiment on UACC-257 melanoma was over 100 µM throughout.
With `NC(=S)N/N=C(/C(=O)Nc1nc2ccc([N+](=O)[O-])cc2s1)C1C(=O)NC(=S)NC1=O`, the TGI with OVCAR-8 ovarian, with A498 renal, in the experiment with OVCAR-4 ovarian, in the experiment with COLO 205 colon, in the experiment on SW-620 colon and with SR leukemia was over 100 µM throughout. Also, the TGI in the experiment on SF-268 CNS, in the experiment on M14 melanoma, with MDA-N, with 786-0 renal, in the experiment with ACHN renal and with BT-549 breast was over 100 µM in each case. In addition, the TGI in the experiment with MDA-MB-231 breast, with PC-3 prostate, in the experiment on CAKI-1 renal and in the experiment on UACC-257 melanoma was over 100 µM each time.

Values taken from PubChem BioAssay (NCI).
